The source of these data is patent US12006321B2, “Substituted pyrazolo[1,5-a]pyrimidines as apelin receptor agonists” (Sanford Burnham Prebys Medical Discovery Institute, priority 2017, dated 2024).

Bounds are passed on as bounds.

The test concerns the target T1, human apelin receptor (APJ, APLNR) (Homo sapiens, UniProt P35414).
T1 construct: host or cells: Chinese hamster ovary (CHO) cells, stably integrated receptor
T1 sequence (P35414 1-380): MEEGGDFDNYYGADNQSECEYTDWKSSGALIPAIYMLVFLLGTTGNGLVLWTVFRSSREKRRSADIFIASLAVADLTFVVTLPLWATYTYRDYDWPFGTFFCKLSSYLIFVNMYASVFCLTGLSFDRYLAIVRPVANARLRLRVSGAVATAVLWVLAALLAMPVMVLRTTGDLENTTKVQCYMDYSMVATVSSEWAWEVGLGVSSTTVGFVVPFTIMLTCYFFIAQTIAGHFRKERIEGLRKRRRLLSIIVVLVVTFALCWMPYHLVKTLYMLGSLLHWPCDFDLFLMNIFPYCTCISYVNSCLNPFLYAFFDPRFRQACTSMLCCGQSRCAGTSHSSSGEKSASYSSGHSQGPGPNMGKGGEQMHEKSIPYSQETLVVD
Kind of test: cell-based cAMP assay (TR-FRET) in Chinese hamster ovary cells expressing the apelin receptor. The settings on record: EC50 = 50% of control (apelin-13, 1 nM) response; cAMP in CHO cells, 0.5 h incubation; read-out: Potency Category. The method, boiled down: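 CHO cells stably expressing human APJ were forskolin-stimulated, then exposed to compound (0.0-100 μM, ≤1% DMSO) for 0.5 h. Lysate cAMP read by competitive TR-FRET immunoassay; EC50 and efficacy expressed relative to 1 nM apelin-13, four-parameter fit over ≥10 concentrations.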
(cAMP levels reflect the balance of adenylyl cyclase and phosphodiesterase activity.)
Consider `COc1cc(C(=O)O)nc2c(-c3c(C)cccc3C)c(C)nn12` [Compound 99, 3-(2,6-dimethylphenyl)-7-methoxy-2-methyl-8-hydropyrazolo[1,5-a]pyrimidine-5-carboxylic acid], for which the EC50 was more than 500 nM. The figure for `Cc1ccc(-c2c(C)nn3c(C(C)C)cc(C(=O)O)nc23)c(C)c1` [Compound 45, 3-(2,4-dimethylphenyl)-2-methyl-7-(methylethyl)-8-hydropyrazolo[1,5-a]pyrimidine-5-carboxylic acid] is more than 500 nM; for `Cc1nn2c(C)cc(C(=O)O)nc2c1-c1ccccc1` [Compound 4, 2,7-dimethyl-3-phenyl-8-hydropyrazolo[1,5-a]pyrimidine-5-carboxylic acid] it is more than 500 nM; for `CCOC(=O)c1cc(C(C)C)n2nc(C)c(-c3ccccc3Cl)c2n1` [Compound 19, ethyl 3-(2-chlorophenyl)-2-methyl-7-(methylethyl)-8-hydropyrazolo[1,5-a]pyrimidine-5-carboxylate] it is more than 500 nM. For the compound `Cc1nn2c(C(C)C)cc(C(=O)O)nc2c1-c1c(F)cccc1Cl` [Compound 113, 3-(2-chloro-6-fluorophenyl)-2-methyl-7-(methylethyl)-8-hydropyrazolo[1,5-a]pyrimidine-5-carboxylic acid], the EC50 was more than 500 nM. As to `CCOC(=O)c1cc(C(C)C)n2nc(C)c(-c3ccc(C)cc3C)c2n1` [Compound 44, ethyl 3-(2,4-dimethylphenyl)-2-methyl-7-(methylethyl)-8-hydropyrazolo[1,5-a]pyrimidine-5-carboxylate], the EC50 is more than 500 nM. As to `Cc1cccc(C)c1-c1c(C)nn2c(C3CCC3)cc(C(=O)O)nc12` [Compound 61, 3-(2,6-dimethylphenyl)-7-cyclobutyl-2-methyl-8-hydropyrazolo[1,5-a]pyrimidine-5-carboxylic acid], the EC50 lay within 100 to 200 nM. On to `COC(=O)c1cc(Cl)n2nc(C)c(-c3c(C)cccc3C)c2n1` [Compound 159, methyl 3-(2,6-dimethylphenyl)-7-chloro-2-methyl-8-hydropyrazolo[1,5-a]pyrimidine-5-carboxylate], for which the EC50 was more than 500 nM. `COC(=O)c1cc(Nc2ccc(C)cc2)n2nc(C)c(-c3c(C)cccc3C)c2n1` [Compound 134, methyl 3-(2,6-dimethylphenyl)-2-methyl-7-[(4-methylphenyl)amino]-8-hydropyrazolo[1,5-a]pyrimidine-5-carboxylate]: the EC50 was more than 500 nM.

`Cc1nn2c(C(C)C)cc(C(=O)O)nc2c1-c1cccc(Cl)c1` [Compound 32, 3-(3-chlorophenyl)-2-methyl-7-(methylethyl)-8-hydropyrazolo[1,5-a]pyrimidine-5-carboxylic acid]: the EC50 is more than 500 nM. Turning to `Cc1cccc(C)c1-c1c(C)nn2c(N(C)c3ccc(F)cc3)cc(C(=O)O)nc12` [Compound 151, 3-(2,6-dimethylphenyl)-7-[(4-fluorophenyl)methylamino]-2-methyl-8-hydropyrazolo[1,5-a]pyrimidine-5-carboxylic acid], the EC50 is more than 500 nM. The figure for `CCc1cccc(C)c1-c1c(C)nn2c(C(C)C)cc(C(=O)O)nc12` [Compound 121, 3-(6-ethyl-2-methylphenyl)-2-methyl-7-(methylethyl)-8-hydropyrazolo[1,5-a]pyrimidine-5-carboxylic acid] is more than 500 nM; for `CCOC(=O)c1cc(C(C)C)n2nc(C)c(-c3ccccc3OC)c2n1` [Compound 29, ethyl 3-(2-methoxyphenyl)-2-methyl-7-(methylethyl)-8-hydropyrazolo[1,5-a]pyrimidine-5-carboxylate] it is more than 500 nM; for `CC1=NC2C(C(C)C)=CC(C(=O)O)=NC2=C1c1ccccc1F` (stereo not drawn) [Compound 24, 3-(2-fluorophenyl)-2-methyl-7-(methylethyl)-8-hydropyrazolo[1,5-a]pyrimidine-5-carboxylic acid] it is more than 500 nM. In the case of `Cc1cccc(F)c1-c1c(C)nn2c(C(C)C)cc(C(=O)O)nc12` [Compound 51, 3-(6-fluoro-2-methylphenyl)-2-methyl-7-(methylethyl)-8-hydropyrazolo[1,5-a]pyrimidine-5-carboxylic acid] it was 200 to 500 nM.
